Measured values from patent publication US8871753B2, “Macrocyclic compounds and their use as kinase inhibitors” (Incyte Corporation, priority 2008, dated 2014).
Where a name gives a salt, the structure may show the parent alone. Read-outs that look alike come from different tables or passages of the source.

Experiments:
Type in all cases: biochemical
[1] = biological target: T1, human JAK3 (a.a. 781-1124) (Homo sapiens, UniProt P52333); assay: In vitro JAK kinase assay (HTRF, phosphorylation of a biotinylated peptide), JAK3
T1 construct: JAK3 (a.a. 781-1124); His tag (N); made in house; host or cells: insect cells (baculovirus)
T1 sequence (P52333 781-1124): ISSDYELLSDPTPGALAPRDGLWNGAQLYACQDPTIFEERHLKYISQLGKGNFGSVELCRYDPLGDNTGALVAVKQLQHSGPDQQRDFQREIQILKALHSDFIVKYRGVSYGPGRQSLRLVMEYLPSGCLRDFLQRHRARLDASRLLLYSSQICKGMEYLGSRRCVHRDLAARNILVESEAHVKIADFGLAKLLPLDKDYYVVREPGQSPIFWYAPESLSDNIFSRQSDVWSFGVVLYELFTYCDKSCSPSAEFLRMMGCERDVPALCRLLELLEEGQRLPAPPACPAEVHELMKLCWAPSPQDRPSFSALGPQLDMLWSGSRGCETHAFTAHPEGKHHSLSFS
Procedure, shortened: (§1)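 Phosphorylation of a biotinylated peptide by the JAK kinase domain, detected by HTRF with Eu-Py20 and SA-APC. ATP was 90 μM for JAK1, 30 μM for JAK2 and 3 μM for JAK3. Reactions ran 1 h at room temperature and were stopped with EDTA, followed by 40 min antibody binding.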

TYK2 = TYK2 (Homo sapiens, UniProt P29597); assay: TYK2 kinase inhibition (Table A1)
Sequence of TYK2 (P29597 whole entry): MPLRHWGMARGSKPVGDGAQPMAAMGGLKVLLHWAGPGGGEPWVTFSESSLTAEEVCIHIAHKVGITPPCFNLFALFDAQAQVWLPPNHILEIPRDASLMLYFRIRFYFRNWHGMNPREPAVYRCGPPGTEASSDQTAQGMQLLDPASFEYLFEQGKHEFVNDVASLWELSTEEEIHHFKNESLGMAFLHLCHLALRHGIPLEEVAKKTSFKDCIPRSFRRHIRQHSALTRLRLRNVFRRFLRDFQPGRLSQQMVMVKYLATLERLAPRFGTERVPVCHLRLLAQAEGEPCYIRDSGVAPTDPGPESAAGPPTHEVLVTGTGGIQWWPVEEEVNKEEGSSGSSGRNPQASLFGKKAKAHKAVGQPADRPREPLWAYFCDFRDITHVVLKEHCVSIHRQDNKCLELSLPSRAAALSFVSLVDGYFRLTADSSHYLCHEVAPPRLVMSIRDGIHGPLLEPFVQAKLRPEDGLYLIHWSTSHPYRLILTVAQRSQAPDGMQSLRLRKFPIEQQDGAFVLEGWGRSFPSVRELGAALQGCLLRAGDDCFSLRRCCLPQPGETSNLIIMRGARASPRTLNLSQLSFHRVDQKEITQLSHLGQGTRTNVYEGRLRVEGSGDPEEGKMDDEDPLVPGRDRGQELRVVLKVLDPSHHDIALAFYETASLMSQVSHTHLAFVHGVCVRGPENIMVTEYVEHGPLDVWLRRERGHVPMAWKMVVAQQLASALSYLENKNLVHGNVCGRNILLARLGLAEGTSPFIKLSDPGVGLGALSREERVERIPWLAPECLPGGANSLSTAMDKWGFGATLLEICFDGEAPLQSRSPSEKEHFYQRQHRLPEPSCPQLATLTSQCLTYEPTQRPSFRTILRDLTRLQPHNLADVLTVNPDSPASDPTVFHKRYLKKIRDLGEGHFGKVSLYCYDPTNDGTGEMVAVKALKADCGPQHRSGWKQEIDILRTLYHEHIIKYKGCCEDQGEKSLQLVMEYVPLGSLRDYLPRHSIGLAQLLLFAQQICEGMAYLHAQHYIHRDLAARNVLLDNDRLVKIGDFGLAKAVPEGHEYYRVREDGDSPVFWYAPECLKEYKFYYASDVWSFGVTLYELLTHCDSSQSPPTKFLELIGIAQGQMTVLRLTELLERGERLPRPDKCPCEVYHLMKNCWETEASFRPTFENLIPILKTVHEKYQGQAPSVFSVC

[2] = biological target: T2, human JAK1 (a.a. 837-1142) (Homo sapiens, UniProt P23458); assay: In vitro JAK kinase assay (HTRF, phosphorylation of a biotinylated peptide), JAK1; details: read-out: JAK1 IC50
T2 construct: human JAK1 (a.a. 837-1142); His tag (N); made in house; host or cells: insect cells (baculovirus)
T2 sequence (P23458 849-1154): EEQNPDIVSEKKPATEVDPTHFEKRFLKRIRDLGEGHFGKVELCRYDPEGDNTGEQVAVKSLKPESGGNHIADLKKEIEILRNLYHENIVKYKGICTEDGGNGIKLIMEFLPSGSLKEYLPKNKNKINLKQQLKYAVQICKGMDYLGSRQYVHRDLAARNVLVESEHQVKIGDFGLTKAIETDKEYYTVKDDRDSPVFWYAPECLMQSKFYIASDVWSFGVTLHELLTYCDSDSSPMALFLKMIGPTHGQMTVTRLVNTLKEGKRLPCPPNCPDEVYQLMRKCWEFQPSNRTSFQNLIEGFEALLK
Procedure, shortened: as §1

[3] = biological target: T3, human JAK2 (a.a. 828-1132) (Homo sapiens, UniProt O60674); assay: In vitro JAK kinase assay (HTRF, phosphorylation of a biotinylated peptide), JAK2
T3 construct: JAK2 (a.a. 828-1132); His tag (N); made in house; host or cells: insect cells (baculovirus)
T3 sequence (O60674 828-1132): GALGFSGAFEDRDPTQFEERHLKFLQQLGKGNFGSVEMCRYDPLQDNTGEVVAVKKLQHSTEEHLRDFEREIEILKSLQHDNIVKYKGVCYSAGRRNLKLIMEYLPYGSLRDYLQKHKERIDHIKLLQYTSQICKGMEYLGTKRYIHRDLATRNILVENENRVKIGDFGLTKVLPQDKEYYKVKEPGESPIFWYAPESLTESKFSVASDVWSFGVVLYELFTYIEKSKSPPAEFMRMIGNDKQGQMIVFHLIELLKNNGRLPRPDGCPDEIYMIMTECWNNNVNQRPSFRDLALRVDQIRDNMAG
Procedure, shortened: as §1

[4] = biological target: T4, Recombinant Human Anaplastic Lymphoma Kinase (Homo sapiens, UniProt Q9UM73); assay: ALK HTRF kinase assay
T4 construct: purchased Invitrogen, Carlsbad, Calif
T4 sequence (Q9UM73 19-1620): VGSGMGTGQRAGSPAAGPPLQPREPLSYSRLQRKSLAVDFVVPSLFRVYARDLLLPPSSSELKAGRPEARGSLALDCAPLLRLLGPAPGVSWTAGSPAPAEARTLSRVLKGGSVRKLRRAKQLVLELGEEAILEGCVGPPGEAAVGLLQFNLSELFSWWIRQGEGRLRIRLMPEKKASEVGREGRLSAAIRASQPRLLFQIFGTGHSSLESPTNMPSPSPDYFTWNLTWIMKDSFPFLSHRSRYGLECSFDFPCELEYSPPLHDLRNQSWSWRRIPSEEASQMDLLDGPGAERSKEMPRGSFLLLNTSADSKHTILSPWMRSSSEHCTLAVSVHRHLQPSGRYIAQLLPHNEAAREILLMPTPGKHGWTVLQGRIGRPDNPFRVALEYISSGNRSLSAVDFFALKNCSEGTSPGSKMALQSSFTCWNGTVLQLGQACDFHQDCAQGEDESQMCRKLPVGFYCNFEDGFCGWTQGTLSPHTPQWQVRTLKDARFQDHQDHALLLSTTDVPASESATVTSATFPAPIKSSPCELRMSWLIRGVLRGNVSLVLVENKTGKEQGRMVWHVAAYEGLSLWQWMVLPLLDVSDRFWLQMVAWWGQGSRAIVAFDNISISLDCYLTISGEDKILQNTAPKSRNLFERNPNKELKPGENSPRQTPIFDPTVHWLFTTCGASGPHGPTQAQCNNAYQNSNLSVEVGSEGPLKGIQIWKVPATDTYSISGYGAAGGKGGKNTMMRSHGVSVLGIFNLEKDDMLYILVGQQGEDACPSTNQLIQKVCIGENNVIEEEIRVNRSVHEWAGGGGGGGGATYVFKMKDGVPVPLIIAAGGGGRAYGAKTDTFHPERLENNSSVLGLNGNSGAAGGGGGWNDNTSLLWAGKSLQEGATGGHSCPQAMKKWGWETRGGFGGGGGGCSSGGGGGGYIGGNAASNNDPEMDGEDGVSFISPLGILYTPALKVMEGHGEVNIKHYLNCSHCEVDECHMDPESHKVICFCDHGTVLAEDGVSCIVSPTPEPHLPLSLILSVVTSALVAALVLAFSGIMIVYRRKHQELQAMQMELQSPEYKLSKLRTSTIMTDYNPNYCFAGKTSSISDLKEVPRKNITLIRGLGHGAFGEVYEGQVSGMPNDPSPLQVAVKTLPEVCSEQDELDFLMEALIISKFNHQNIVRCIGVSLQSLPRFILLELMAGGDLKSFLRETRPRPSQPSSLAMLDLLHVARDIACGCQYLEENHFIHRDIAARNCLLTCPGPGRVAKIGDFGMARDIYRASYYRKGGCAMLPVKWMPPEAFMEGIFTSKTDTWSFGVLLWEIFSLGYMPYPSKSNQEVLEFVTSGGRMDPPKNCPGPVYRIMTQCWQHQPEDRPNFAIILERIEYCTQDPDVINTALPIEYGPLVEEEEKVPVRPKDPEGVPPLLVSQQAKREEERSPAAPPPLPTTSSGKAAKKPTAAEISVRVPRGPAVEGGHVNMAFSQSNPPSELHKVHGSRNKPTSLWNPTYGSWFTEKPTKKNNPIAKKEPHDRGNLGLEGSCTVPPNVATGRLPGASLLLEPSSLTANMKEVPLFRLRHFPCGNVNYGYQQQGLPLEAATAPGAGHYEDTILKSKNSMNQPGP
Procedure, shortened: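 Recombinant human ALK phosphorylated a biotinylated synthetic peptide. Phosphotyrosine was detected by TR-FRET between a Eu-labelled anti-phosphotyrosine antibody and streptavidin-allophycocyanin. IC50 values came from fitting signal against inhibitor concentration to a four-parameter logistic equation with variable Hill slope.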

[5] = percentage inhibition of the example compound at a concentration of 500 nM or 1 mM (not specified which)
[6] = method AA1 (3 μM ATP) or AA2 (1000 μM ATP), not stated per value
[7] = method AA1 (90 μM ATP) or AA2 (1000 μM ATP), not stated per value
[8] = method AA1 (30 μM ATP) or AA2 (1000 μM ATP), not stated per value
[9] = compound at 500 nM or 1 mM, 90 μM ATP
[10] = compound at a concentration of 500 nM or 1 mM (not specified), cells shown as percentage
[11] = Table B1, cells without percent sign

| Structure (SMILES) | IC50 ([1]; Table B1) [nM] | IC50 (TYK2; Table B1) [nM] | IC50 ([2]; Table B1) [nM] | IC50 ([3]; Table B1) [nM] | IC50 [1, 6] [nM] | IC50 (TYK2) [nM] | IC50 [2, 7] [nM] | IC50 [3, 8] [nM] | ALK % of inhibition at a concentration of 500 nM or 1 mM [4, 9] [%] | other results |
| --- | --- | --- | --- | --- | --- | --- | --- | --- | --- | --- |
| Cc1cncc(N2CCN(C(=O)Nc3ccc4cc3CCc3cncc(c3)Nc3ncc(Cl)c(n3)N4)CC2)n1 [Example B308, N-[6-Chloro-2,4,8,18,22-pentaazatetracyclo[14.3.1.1(3,7).1(9,13)]docosa-1(20),3(22),4,6,9(21),10,12,16,18-nonaen-12-yl]-4-(6-methylpyrazin-2-yl)piperazine-1-carboxamide tris(trifluoroacetate)] | > 400 | 34 | 16 | 83 |  |  |  |  |  | ALK % of inhibition at a concentration of 500 nM or 1 mM [4, 5]: 79% |
| N#Cc1ccccc1S(=O)(=O)N1CCC(CC(=O)Nc2ccc3cc2CCc2cncc(c2)Nc2ncc(Cl)c(n2)N3)CC1 [Example A198, N-[6-Chloro-2,4,8,18,22-pentaazatetracyclo[14.3.1.1(3,7).1(9,13)]docosa-1(20),3(22),4,6,9(21),10,12,16,18-nonaen-12-yl]-2-{1-[(2-cyanophenyl)sulfonyl]piperidin-4-yl}acetamide bis(trifluoroacetate)] |  |  |  |  | > 200 | 50 | 0.4 | 50 | 56 |  |
| O=C(CC1CCN(C(=O)c2ccncc2)CC1)Nc1ccc2cc1CCc1cccc(c1)Nc1ncc(Cl)c(n1)N2 [Example A185, N-[6-Chloro-2,4,8,22-tetraazatetracyclo[14.3.1.1(3,7).1(9,13)]docosa-1(20),3(22),4,6,9(21),10,12,16,18-nonaen-12-yl]-2-(1-isonicotinoylpiperidin-4-yl)acetamide bis(trifluoroacetate)] |  |  |  |  | > 200 | > 200 | 62 | > 200 | 33 |  |
| Cc1oncc1S(=O)(=O)N1CCC(CC(=O)Nc2ccc3cc2CCc2cncc(c2)Nc2ncc(Cl)c(n2)N3)CC1 [Example A200, N-[6-Chloro-2,4,8,18,22-pentaazatetracyclo[14.3.1.1(3,7).1(9,13)]docosa-1(20),3(22),4,6,9(21),10,12,16,18-nonaen-12-yl]-2-{1-[(5-methylisoxazol-4-yl)sulfonyl]piperidin-4-yl}acetamide bis(trifluoroacetate)] |  |  |  |  | > 200 | > 200 | 8.5 | 101 | 25 |  |
| CN(Cc1ccc2cc1CCc1cncc(c1)Nc1ncc(Cl)c(n1)N2)C(=O)C1CCN(C(=O)c2ccno2)CC1 [Example B336, N-{[6-Chloro-2,4,8,18,22-pentaazatetracyclo[14.3.1.1(3,7).1(9,13)]docosa-1(20),3(22),4,6,9(21),10,12,16,18-nonaen-12-yl]methyl}-1-(isoxazol-5-ylcarbonyl)-N-methylpiperidine-4-carboxamide bis(trifluoroacetate)] | > 200 | > 200 | 52 | 140 |  |  |  |  |  | ALK % of inhibition at a concentration of 500 nM or 1 mM [4, 5]: 11% |
| O=C(Nc1ccc2cc1CCc1cccc(c1)Nc1ncc(Cl)c(n1)N2)c1ccc2occc2c1 [Example B79, N-[6-Chloro-2,4,8,22-tetraazatetracyclo[14.3.1.1(3,7).1(9,13)]docosa-1(20), 3(22),4,6,9(21),10,12,16,18-nonaen-12-yl]-1-benzofuran-5-carboxamide trifluoroacetate] | 2.8 | 1.7 | 0.83 | 0.58 |  |  |  |  |  | ALK % of inhibition at a concentration of 500 nM or 1 mM [4, 10]: 91% |
| NS(=O)(=O)N1CCCC(C(=O)Nc2ccc3cc2CCc2cccc(c2)Nc2ncc(Cl)c(n2)N3)C1 (centres unmarked) [Example A73, 1-(Aminosulfonyl)-N-[6-chloro-2,4,8,22-tetraazatetracyclo[14.3.1.1(3,7).1(9,13)]docosa-1(20),3(22),4,6,9(21),10,12,16,18-nonaen-12-yl]piperidine-3-carboxamide trifluoroacetate] |  |  |  |  | 3 | 8 | 10 | 0.7 | 49 |  |
| Clc1cnc2nc1Nc1cccc(c1)NCCCc1cccc(c1)N2 [Example D75, 6-Chloro-2,4,8,14,24-pentaazatetracyclo[16.3.1.1(3,7).1(9,13)]tetracosa-1(22),3(24),4,6,9(23),10,12,18,20-nonaene bis(trifluoroacetate)] |  |  |  |  |  |  |  |  |  | IC50 ([1]; Table D1): 80 nM; IC50 (TYK2; Table D1): 60 nM; IC50 ([2]; Table D1): 50 nM; IC50 ([3]; Table D1): 26 nM; IC50 ([4]; Table D1, 90 μM ATP): 1250 nM |
| O=C(CC1CCN(S(=O)(=O)c2ccccc2)CC1)Nc1ccc2cc1CCc1cncc(c1)Nc1ncc(Cl)c(n1)N2 [Example A195, N-[6-Chloro-2,4,8,18,22-pentaazatetracyclo[14.3.1.1(3,7).1(9,13)]docosa-1(20),3(22),4,6,9(21),10,12,16,18-nonaen-12-yl]-2-[1-(phenylsulfonyl)piperidin-4-yl]acetamide bis(trifluoroacetate)] |  |  |  |  | > 200 | 140 | 7.1 | 80 | 35 |  |
| Nc1cc2cc(c1)Nc1nc(ncc1Cl)Nc1cccc(c1)CC2 [Example B21, 6-Chloro-2,4,8,22-tetraazatetracyclo[14.3.1.1(3,7).1(9,13)]docosa-1(20),3(22),4,6,9(21),10,12,16,18-nonaen-11-amine bis(trifluoroacetate)] | 21 | 32 | 18 | 6.3 |  |  |  |  |  | IC50 [4, 11]: 1500 nM |
| O=C(Nc1ccc2cc1CCc1cccc(c1)Nc1ncc(Cl)c(n1)N2)Nc1ccccc1OC(F)(F)F [Example B131, N-[6-Chloro-2,4,8,22-tetraazatetracyclo[14.3.1.1(3,7).1(9,13)]docosa-1(20), 3(22),4,6,9(21),10,12,16,18-nonaen-12-yl]-N′-[2-(trifluoromethoxy)phenyl]urea trifluoroacetate] | 63 | 33 | 7.3 | 13 |  |  |  |  |  | ALK % of inhibition at a concentration of 500 nM or 1 mM [4, 10]: 5.9% |
| COc1ccccc1NC(=O)N1CCC(CC(=O)Nc2ccc3cc2CCc2cncc(c2)Nc2ncc(Cl)c(n2)N3)CC1 [Example A152, 4-(2-{[6-Chloro-2,4,8,18,22-pentaazatetracyclo[14.3.1.1(3,7).1(9,13)]docosa-1(20),3(22),4,6,9(21),10,12,16,18-nonaen-12-yl]amino}-2-oxoethyl)-N-(2-methoxyphenyl)piperidine-1-carboxamide bis(trifluoroacetate)] |  |  |  |  | > 100 | 2.4 | 0.4 | 2.4 | 37 |  |
| CC(=O)Nc1ccc(C(=O)Nc2ccc3cc2CCc2cccc(c2)Nc2ncc(Cl)c(n2)N3)cc1 [Example B45, 4-(Acetylamino)-N-[6-chloro-2,4,8,22-tetraazatetracyclo[14.3.1.1(3,7).1(9,13)]docosa-1(20),3(22),4,6,9(21),10,12,16,18-nonaen-12-yl]benzamide trifluoroacetate] | 3.7 | 0.53 | 0.88 | 0.6 |  |  |  |  |  | IC50 [4, 11]: 95 nM |
| O=C(Nc1ccc2cc1CCc1cccc(c1)Nc1ncc(Cl)c(n1)N2)c1ccc(C(F)(F)F)cc1 [Example B75, N-[6-Chloro-2,4,8,22-tetraazatetracyclo[14.3.1.1(3,7).1(9,13)]docosa-1(20), 3(22),4,6,9(21),10,12,16,18-nonaen-12-yl]-4-(trifluoromethyl)benzamide trifluoroacetate] | 80 | 30 | 4.7 | 30 |  |  |  |  |  | ALK % of inhibition at a concentration of 500 nM or 1 mM [4, 10]: 17% |
| O=C(Nc1ccc2cc1CCc1cccc(c1)Nc1ncc(Cl)c(n1)N2)N[C@H]1CCN(C(=O)C2CC2)C1 [Example B228, N-[6-Chloro-2,4,8,22-tetraazatetracyclo[14.3.1.1(3,7).1(9,13)]docosa-1(20),3(22),4,6,9(21),10,12,16,18-nonaen-12-yl]-N′-[(3S)-1-(cyclopropylcarbonyl)pyrrolidin-3-yl]urea trifluoroacetate] | 63 | 19 | 6 | 11 |  |  |  |  |  | ALK % of inhibition at a concentration of 500 nM or 1 mM [4, 10]: 10% |
| O=C(Nc1ccc2cc1CCc1cccc(c1)Nc1ncc(Cl)c(n1)N2)c1nccs1 [Example B52, N-[6-Chloro-2,4,8,22-tetraazatetracyclo[14.3.1.1(3,7).1(9,13)]docosa-1(20), 3(22),4,6,9(21),10,12,16,18-nonaen-12-yl]-1,3-thiazole-2-carboxamide trifluoroacetate] | 17 | 6.3 | 3.7 | 1.8 |  |  |  |  |  | IC50 [4, 11]: 910 nM |
